The record followed here is patent US9637483B2, “Heterocyclic compound” (TAKEDA PHARMACEUTICAL COMPANY LIMITED, priority 2013, dated 2017).

Common to all, as to format: biochemical
The target of one assay is T1, JAK1 (Homo sapiens, UniProt P23458).
T1 construct: purchased Invitrogen
Nature of the assay: JAK1 enzyme inhibition test (LANCE method). Particulars: 1 μM test compound; for inhibition at 1 µM: read-out: JAK1 enzyme inhibitory activity (%, 1 μM). Put shortly:
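Inhibition expressed against no-enzyme wells (100% inhibition), from time-resolved fluorescence at 665 nm after Eu-anti-phosphotyrosine antibody/EDTA detection. Kinase reaction ran 1 h at room temperature, pH 7.5 HEPES buffer, ULight-JAK1 substrate and ATP diluted to 300 nM and 150 μM before addition.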
A general note: TR-FRET usually uses a lanthanide donor and a delayed reading to cut background.

For another assay, the target named is T2, JAK2 (Homo sapiens, UniProt O60674).
T2 construct: purchased Invitrogen
T2 sequence (O60674 whole entry): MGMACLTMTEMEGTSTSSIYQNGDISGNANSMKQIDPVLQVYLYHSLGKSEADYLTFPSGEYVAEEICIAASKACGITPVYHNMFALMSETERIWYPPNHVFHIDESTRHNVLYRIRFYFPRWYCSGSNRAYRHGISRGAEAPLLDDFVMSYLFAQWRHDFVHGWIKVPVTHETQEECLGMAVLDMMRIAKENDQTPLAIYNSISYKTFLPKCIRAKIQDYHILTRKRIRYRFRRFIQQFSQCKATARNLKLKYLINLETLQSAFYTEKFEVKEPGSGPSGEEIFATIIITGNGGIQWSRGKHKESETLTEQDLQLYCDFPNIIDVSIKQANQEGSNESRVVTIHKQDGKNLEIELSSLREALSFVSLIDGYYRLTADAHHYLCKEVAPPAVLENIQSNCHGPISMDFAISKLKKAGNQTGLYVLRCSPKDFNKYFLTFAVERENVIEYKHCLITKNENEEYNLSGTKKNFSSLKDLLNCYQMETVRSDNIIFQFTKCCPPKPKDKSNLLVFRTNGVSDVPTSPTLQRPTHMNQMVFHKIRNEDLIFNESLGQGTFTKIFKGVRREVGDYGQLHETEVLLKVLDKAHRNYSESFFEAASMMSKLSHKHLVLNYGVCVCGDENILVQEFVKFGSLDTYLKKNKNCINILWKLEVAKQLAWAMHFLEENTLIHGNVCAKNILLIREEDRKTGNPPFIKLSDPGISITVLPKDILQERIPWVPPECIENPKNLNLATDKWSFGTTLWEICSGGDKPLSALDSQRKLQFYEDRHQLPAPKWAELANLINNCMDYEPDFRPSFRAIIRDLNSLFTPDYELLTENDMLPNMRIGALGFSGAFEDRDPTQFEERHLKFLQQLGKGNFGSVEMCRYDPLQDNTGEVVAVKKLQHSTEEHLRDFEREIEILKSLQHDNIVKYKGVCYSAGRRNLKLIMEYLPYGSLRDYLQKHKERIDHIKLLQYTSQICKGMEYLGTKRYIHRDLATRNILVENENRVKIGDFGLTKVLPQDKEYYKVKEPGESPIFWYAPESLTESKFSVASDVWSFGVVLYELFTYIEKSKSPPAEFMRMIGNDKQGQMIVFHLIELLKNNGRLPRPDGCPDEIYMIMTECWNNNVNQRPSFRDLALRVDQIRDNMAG
Nature of the assay: JAK2 enzyme inhibition test (LANCE method). Particulars: 1 μM test compound; for inhibition at 1 µM: read-out: JAK2 enzyme inhibitory activity (%, 1 μM). The essentials:
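TR-FRET (LANCE) read-out, ex 340/em 665 nm with 100 μs delay, after 1 hr room-temperature detection with europium anti-phosphotyrosine antibody and 20 mM EDTA. The preceding 1 hr kinase reaction combined JAK2, ULight-JAK1 substrate and ATP, added as 6 ng/mL, 300 nM and 45 μM solutions; enzyme-free wells defined 100% inhibition.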

Another assay concerns the target T3, JAK3 (Homo sapiens, UniProt P52333).
T3 construct: purchased Invitrogen
T3 sequence (P52333 1-1124): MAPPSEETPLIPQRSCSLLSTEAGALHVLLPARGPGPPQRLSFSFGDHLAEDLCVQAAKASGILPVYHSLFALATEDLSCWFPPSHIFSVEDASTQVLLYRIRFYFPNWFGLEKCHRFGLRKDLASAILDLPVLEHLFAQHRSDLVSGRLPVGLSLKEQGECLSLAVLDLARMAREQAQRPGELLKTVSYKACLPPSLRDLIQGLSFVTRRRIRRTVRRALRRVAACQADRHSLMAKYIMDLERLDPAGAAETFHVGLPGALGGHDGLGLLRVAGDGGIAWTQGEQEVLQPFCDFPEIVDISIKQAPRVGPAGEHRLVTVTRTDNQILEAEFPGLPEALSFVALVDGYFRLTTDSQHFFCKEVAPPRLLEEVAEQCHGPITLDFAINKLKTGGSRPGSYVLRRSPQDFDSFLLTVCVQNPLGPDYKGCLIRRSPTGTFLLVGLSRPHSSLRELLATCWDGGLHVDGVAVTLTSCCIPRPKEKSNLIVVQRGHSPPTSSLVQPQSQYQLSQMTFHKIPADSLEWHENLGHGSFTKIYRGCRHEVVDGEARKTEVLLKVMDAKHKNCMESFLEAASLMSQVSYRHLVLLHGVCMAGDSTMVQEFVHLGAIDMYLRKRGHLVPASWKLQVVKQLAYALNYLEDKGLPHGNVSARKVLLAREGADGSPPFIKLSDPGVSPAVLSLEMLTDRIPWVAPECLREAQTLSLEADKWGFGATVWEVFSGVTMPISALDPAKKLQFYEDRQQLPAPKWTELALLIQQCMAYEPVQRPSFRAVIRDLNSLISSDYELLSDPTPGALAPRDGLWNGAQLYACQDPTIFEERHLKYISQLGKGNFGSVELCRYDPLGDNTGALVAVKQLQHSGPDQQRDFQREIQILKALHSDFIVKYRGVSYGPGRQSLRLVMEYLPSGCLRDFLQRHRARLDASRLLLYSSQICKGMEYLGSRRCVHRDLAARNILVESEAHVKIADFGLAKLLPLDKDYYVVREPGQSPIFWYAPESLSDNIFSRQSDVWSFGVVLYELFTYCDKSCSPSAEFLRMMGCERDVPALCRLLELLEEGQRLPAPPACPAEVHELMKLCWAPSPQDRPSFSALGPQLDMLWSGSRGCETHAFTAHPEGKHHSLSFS
Kind of assay: JAK3 enzyme inhibition test (LANCE method). Particulars: 1 μM test compound; for inhibition at 1 µM: read-out: JAK3 enzyme inhibitory activity (%, 1 μM). Put shortly: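 TR-FRET (LANCE) read: 1 h room-temperature reaction, EDTA quench, Eu-anti-phosphotyrosine antibody, emission 665 nm after 340 nm excitation. Added solutions held 12 ng/mL JAK3, 300 nM ULight-JAK1 substrate and 15 μM ATP (pH 7.5 HEPES). Activity expressed against no-enzyme wells defined as full inhibition.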

Another assay addresses T4, TYK2 (Homo sapiens, UniProt P29597).
T4 construct: purchased Invitrogen
Kind of assay: TYK2 enzyme inhibition test (LANCE method). Conditions: 1 μM test compound; for inhibition at 1 µM: read-out: TYK2 enzyme inhibitory activity (%, 1 μM). Put shortly: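 TR-FRET (LANCE) readout: after 1 h room-temperature kinase reaction, EDTA plus 4 nM Eu-labelled anti-phosphotyrosine antibody added, signal at 665 nm (340 nm excitation). Reaction combined TYK2, ULight-JAK1 substrate and ATP, prepared at 375 ng/mL, 300 nM and 30 μM before addition, in pH 7.5 HEPES/MgCl2 buffer; enzyme-free wells define full inhibition.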

T4 sequence (P29597 whole entry): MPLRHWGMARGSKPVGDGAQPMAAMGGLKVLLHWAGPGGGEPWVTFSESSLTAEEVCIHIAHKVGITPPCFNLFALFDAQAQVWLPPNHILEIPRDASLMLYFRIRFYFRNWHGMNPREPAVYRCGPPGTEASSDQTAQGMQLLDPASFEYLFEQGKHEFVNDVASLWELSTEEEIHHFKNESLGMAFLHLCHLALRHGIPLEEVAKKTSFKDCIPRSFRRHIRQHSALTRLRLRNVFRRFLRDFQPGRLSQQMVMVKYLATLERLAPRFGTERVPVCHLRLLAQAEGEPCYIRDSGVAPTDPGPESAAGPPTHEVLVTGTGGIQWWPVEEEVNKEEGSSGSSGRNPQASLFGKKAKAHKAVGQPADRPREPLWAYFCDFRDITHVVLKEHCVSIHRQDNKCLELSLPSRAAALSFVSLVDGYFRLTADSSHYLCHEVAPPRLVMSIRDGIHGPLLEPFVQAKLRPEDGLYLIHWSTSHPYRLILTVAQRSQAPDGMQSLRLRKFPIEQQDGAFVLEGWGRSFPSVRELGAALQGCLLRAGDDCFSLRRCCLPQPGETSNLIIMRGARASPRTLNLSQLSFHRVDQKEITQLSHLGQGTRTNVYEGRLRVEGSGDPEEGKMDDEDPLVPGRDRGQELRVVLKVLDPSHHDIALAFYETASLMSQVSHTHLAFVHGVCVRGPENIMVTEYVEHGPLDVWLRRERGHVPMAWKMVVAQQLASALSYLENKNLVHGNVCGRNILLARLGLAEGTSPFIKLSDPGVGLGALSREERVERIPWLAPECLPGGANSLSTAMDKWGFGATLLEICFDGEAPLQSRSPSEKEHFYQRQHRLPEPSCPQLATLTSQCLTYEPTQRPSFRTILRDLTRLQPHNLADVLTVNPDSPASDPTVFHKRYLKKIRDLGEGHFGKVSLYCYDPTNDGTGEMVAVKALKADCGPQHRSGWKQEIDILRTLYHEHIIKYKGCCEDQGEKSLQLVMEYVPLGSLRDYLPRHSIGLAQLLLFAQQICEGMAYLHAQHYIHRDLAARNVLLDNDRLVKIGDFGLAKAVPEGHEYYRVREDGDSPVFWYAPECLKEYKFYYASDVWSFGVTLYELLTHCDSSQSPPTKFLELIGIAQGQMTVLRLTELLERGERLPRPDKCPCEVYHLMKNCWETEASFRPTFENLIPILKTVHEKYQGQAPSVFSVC
T1 sequence (P23458 whole entry): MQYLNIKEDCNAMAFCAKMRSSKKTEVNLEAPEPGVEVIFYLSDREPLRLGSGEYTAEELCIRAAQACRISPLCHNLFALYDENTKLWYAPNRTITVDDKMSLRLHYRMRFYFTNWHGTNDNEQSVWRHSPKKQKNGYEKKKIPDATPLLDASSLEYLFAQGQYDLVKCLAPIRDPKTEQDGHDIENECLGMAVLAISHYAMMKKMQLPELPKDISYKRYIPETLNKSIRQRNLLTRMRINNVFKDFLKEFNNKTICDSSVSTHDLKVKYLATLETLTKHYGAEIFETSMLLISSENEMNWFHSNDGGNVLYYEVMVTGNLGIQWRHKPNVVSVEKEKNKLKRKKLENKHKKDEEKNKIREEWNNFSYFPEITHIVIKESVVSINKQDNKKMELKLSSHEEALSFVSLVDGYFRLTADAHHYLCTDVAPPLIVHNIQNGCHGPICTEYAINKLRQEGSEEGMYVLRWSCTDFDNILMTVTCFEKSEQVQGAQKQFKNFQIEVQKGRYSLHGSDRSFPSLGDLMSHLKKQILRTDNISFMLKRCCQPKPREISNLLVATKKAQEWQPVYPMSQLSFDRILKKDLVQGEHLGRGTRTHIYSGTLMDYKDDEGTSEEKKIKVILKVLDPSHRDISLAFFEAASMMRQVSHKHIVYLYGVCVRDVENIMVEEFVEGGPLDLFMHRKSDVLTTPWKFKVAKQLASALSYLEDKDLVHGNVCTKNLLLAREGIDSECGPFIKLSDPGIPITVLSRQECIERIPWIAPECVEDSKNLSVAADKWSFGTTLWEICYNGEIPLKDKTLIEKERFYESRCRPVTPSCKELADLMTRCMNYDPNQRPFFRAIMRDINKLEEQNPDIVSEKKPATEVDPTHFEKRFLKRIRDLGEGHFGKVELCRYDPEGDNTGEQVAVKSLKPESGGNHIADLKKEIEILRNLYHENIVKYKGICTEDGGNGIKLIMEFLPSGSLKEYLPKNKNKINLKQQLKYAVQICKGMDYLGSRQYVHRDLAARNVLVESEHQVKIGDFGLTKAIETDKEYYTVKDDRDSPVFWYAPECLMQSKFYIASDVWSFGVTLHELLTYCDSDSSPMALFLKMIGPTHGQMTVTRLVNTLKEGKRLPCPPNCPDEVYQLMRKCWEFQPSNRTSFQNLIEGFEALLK

Take `CN(c1cc(-c2cn(-c3c(F)cccc3C#N)c(=O)c3c(N)n[nH]c23)nn1C)C1CCCC1` [Example 123, 2-(3-amino-7-(5-(cyclopentyl(methyl)amino)-1-methyl-1H-pyrazol-3-yl)-4-oxo-1,4-dihydro-5H-pyrazolo[4,3-c]pyridin-5-yl)-3-fluorobenzonitrile]: the inhibition at 1 µM on JAK1 was 97%; on JAK2 it was 94%; at JAK3, 95%; on TYK2 it was 100%.

For the compound `CC1CCCCC1n1cc(-c2cc(C(C)(C)O)n(C)n2)c2[nH]nc(N)c2c1=O` (stereo not shown) [Example 120, 3-amino-7-(5-(2-hydroxypropan-2-yl)-1-methyl-1H-pyrazol-3-yl)-5-(2-methylcyclohexyl)-1,5-dihydro-4H-pyrazolo[4,3-c]pyridin-4-one], the “JAK1 enzyme inhibitory activity (%, 1 μM)” value on JAK1 (1 µM) amounted to 100%. Also, the “JAK2 enzyme inhibitory activity (%, 1 μM)” value at JAK2 (1 µM) is given as 100%. Moreover, the “JAK3 enzyme inhibitory activity (%, 1 μM)” value on JAK3 (1 µM) came out at 100%. For the same compound, the “TYK2 enzyme inhibitory activity (%, 1 μM)” value at TYK2 (1 µM) is given as 101%.

Regarding `C[C@@H](C1CC1)n1cc(-c2cc(N3CCC(O)(C(F)(F)F)CC3)n(C)n2)c2[nH]nc(N)c2c1=O` [Example 94, 3-amino-5-((1S)-1-cyclopropylethyl)-7-(5-(4-hydroxy-4-(trifluoromethyl)piperidin-1-yl)-1-methyl-1H-pyrazol-3-yl)-1,5-dihydro-4H-pyrazolo[4,3-c]pyridin-4-one], the inhibition at 1 µM on JAK1 was determined as 100%; on JAK2, 100%; at JAK3, 100%; at TYK2 it was 99%.

Regarding `CC(C)[C@H](C)n1cc(-c2cc(C(C)(C)O)n(C)n2)c2[nH]nc(N)c2c1=O.Cl` [Example 86, 3-amino-7-(5-(2-hydroxypropan-2-yl)-1-methyl-1H-pyrazol-3-yl)-5-((2S)-3-methylbutan-2-yl)-1,5-dihydro-4H-pyrazolo[4,3-c]pyridin-4-one hydrochloride], the “JAK1 enzyme inhibitory activity (%, 1 μM)” value on JAK1 amounted to 98%. Also, on JAK2, the “JAK2 enzyme inhibitory activity (%, 1 μM)” value is listed as 98%. Further, the “JAK3 enzyme inhibitory activity (%, 1 μM)” value at JAK3 was 99%. For the same compound, at TYK2, the “TYK2 enzyme inhibitory activity (%, 1 μM)” value was determined as 100%.

Consider `CC(C)[C@H](C)n1cc(-c2cc(N3CCOCC3)n(C)n2)c2[nH]nc(N)c2c1=O` [Example 41, 3-amino-5-((2S)-3-methylbutan-2-yl)-7-(1-methyl-5-(morpholin-4-yl)-1H-pyrazol-3-yl)-1,5-dihydro-4H-pyrazolo[4,3-c]pyridin-4-one], for which the inhibition at 1 µM at JAK1 was 97%; at JAK2, 99%; on JAK3, 100%; on TYK2, 101%.

As to `CC(C)[C@H](C)n1cc(-c2cc(N3CCC(F)(F)C3)n(C)n2)c2[nH]nc(N)c2c1=O` [Example 106, 3-amino-7-(5-(3,3-difluoropyrrolidin-1-yl)-1-methyl-1H-pyrazol-3-yl)-5-((2S)-3-methylbutan-2-yl)-1,5-dihydro-4H-pyrazolo[4,3-c]pyridin-4-one], the inhibition at 1 µM is 97% on JAK1, 99% on JAK2, 99% at JAK3 and 100% on TYK2.

Turning to `CC(C)[C@H](C)n1cc(-c2cc(C(=O)N(C)C3CCOCC3)n(C)n2)c2[nH]nc(N)c2c1=O` [Example 53, 3-(3-amino-5-((2S)-3-methylbutan-2-yl)-4-oxo-4,5-dihydro-1H-pyrazolo[4,3-c]pyridin-7-yl)-N,1-dimethyl-N-(tetrahydro-2H-pyran-4-yl)-1H-pyrazole-5-carboxamide], the inhibition at 1 µM at JAK1 was determined as 95%; at JAK2 it was 96%; at JAK3 it was 99%; on TYK2, 98%.

Regarding `C[C@@H](C1CC1)n1cc(-c2cc(N3CCS(=O)(=O)CC3)n(C)n2)c2[nH]nc(N)c2c1=O` [Example 96, 3-amino-5-((1S)-1-cyclopropylethyl)-7-(5-(1,1-dioxidothiomorpholin-4-yl)-1-methyl-1H-pyrazol-3-yl)-1,5-dihydro-4H-pyrazolo[4,3-c]pyridin-4-one], the inhibition at 1 µM was 99% at JAK1, 100% at JAK2, 100% on JAK3 and 100% at TYK2.

In the case of `CC1CCCCC1n1cc(-c2cc(C(C)(C)O)n(C)n2)c2[nH]nc(N)c2c1=O` (stereo not shown) [Example 118, 3-amino-7-(5-(2-hydroxypropan-2-yl)-1-methyl-1H-pyrazol-3-yl)-5-(2-methylcyclohexyl)-1,5-dihydro-4H-pyrazolo[4,3-c]pyridin-4-one], on JAK1 (1 µM), the “JAK1 enzyme inhibitory activity (%, 1 μM)” value amounted to 98%. The “JAK2 enzyme inhibitory activity (%, 1 μM)” value at JAK2 (1 µM) turned out to be 97%. Moreover, the “JAK3 enzyme inhibitory activity (%, 1 μM)” value on JAK3 (1 µM) is 99%. Further, on TYK2 (1 µM), the “TYK2 enzyme inhibitory activity (%, 1 μM)” value is recorded as 100%.

Regarding `COC(C)(C)c1cc(-c2cn([C@@H](C)C(C)C)c(=O)c3c(N)n[nH]c23)nn1C` [Example 109, 3-amino-7-(5-(2-methoxypropan-2-yl)-1-methyl-1H-pyrazol-3-yl)-5-((2S)-3-methylbutan-2-yl)-1,5-dihydro-4H-pyrazolo[4,3-c]pyridin-4-one], the inhibition at 1 µM is 98% on JAK1, 99% at JAK2, 99% at JAK3 and 99% at TYK2.

`COC1(c2cc(-c3cn([C@@H](C)C(C)C)c(=O)c4c(N)n[nH]c34)nn2C)CCS(=O)(=O)CC1` [Example 110, 3-amino-7-(5-(4-methoxy-1,1-dioxidotetrahydro-2H-thiopyran-4-yl)-1-methyl-1H-pyrazol-3-yl)-5-((2S)-3-methylbutan-2-yl)-1,5-dihydro-4H-pyrazolo[4,3-c]pyridin-4-one]: the inhibition at 1 µM at JAK1 was 89%; at JAK2, 99%; on JAK3, 99%; on TYK2 it was 100%.

Take `Cn1nc(-c2cn(-c3c(F)cccc3F)c(=O)c3c(N)n[nH]c23)cc1N1CCC(C#N)CC1` [Example 141, 1-(3-(3-amino-5-(2,6-difluorophenyl)-4-oxo-4,5-dihydro-1H-pyrazolo[4,3-c]pyridin-7-yl)-1-methyl-1H-pyrazol-5-yl)piperidine-4-carbonitrile]: the inhibition at 1 µM amounted to 98% on JAK1, 99% on JAK2, 100% on JAK3 and 100% on TYK2.

Take `COC1(c2cc(-c3cn([C@@H](C)C(C)C)c(=O)c4c(N)n[nH]c34)nn2C)CN(S(=O)(=O)C(C)C)C1` [Example 136, 3-amino-7-(5-(1-(isopropylsulfonyl)-3-methoxyazetidin-3-yl)-1-methyl-1H-pyrazol-3-yl)-5-((2S)-3-methylbutan-2-yl)-1,5-dihydro-4H-pyrazolo[4,3-c]pyridin-4-one]: the inhibition at 1 µM worked out at 80% at JAK1, 98% on JAK2, 98% at JAK3 and 100% at TYK2.
